Laboratory results reported in patent US9504747B2, “Lipids and lipid compositions for the delivery of active agents” (Novartis AG, priority 2013, dated 2016).
“And” between values parts separate entries of the source, which are not always exact repeats. Equal values may be shown once.

What was measured:
[1] = pKa measurement of the cationic lipid (TNS fluorescence vs pH); type: physicochemical; conditions: probe TNS (fluorescent probe), pKa of the cationic lipid of formula (I)
Procedure: Unless indicated otherwise, all pKa's referred to herein were measured at standard temperature and pressure. Also, unless otherwise indicated, all references to pKa are references to pKa measured using the following technique. 2 mM solution of lipid in ethanol was prepared by weighing the lipid and then dissolving it in ethanol. 0.3 mM solution of fluorescent probe TNS in ethanol:methanol 9:1 was prepared by first making 3 mM solution of TNS in methanol and then diluting to 0.3 mM with ethanol. An aqueous buffer containing 200 mM sodium phosphate dibasic and 100 mM citric acid was prepared. […] Using the Hamilton Microlab Star high throughput liquid handler and Hamilton run control software Software, 7.5 uL of probe/lipid mix were added to 242.5 uL of buffer in a 1 mL 96 well plate (model NUNC 260252, […] Nunc International). This was done with all twelve buffers. After mixing in 1 mL 96 well plate, 100 uL of each probe/lipid/buffer mixture was transferred to a 250 uL black with clear bottom 96 well plate (model COSTAR 3904, Corning). The fluorescence measurements are carried out on the SpectraMax M5 spectrophotometer using software SoftMax pro 5.2 and following parameters: After the measurement, the background fluorescence value of an empty well on the 96 well plate was subtracted from each probe/lipid/buffer mixture. The fluorescence intensity values were then normalized to the value at lowest pH. The normalized fluorescence intensity vs. pH chart was then plotted in the Microsoft Excel software. The twelve points were connected with a smooth line. The point on the line at which the normalized fluorescence intensity was equal to 0.5 was found. […] The pKa determined using this method is precise to about 0.1 pKa units.

[2] = system: respiratory syncytial virus F protein; assay: Immunization studies: anti-RSV-F titers after liposome-delivered vA317 self-replicating RNA; type: in vivo; conditions: BALB/c mice, liposomes with 0.1 μg vA317 replicon (naked control 1 μg); for anti-RSV-F titer 2wp1 pool 1 / anti-RSV-F titer 2wp1 pool 2: 2 weeks after first dose; for anti-RSV-F titer 2wp2 pool 1 / anti-RSV-F titer 2wp2 pool 2: 2 weeks after second dose; for anti-RSV-F titer 4wp2 pool 1 / anti-RSV-F titer 4wp2 pool 2: 4 weeks after second dose
Procedure: BALB/c were immunized with liposomes comprising DSPC, cholesterol, and various lipids of the invention (or, for comparison, the cationic lipid 1,2-dilinoleyloxy-N,N-dimethyl-3-aminopropane or ‘DLinDMA’). The liposomes encapsulated 0.1 μg of “vA317” self-replicating RNA replicon which encodes respiratory syncytial virus F protein (see WO2012/031043). […] Doses were given either on days 0 & 21 or days 0 & 42. Immune responses were assessed 2 weeks after each dose (2wp1, 2wp2), and in some cases also at 4 weeks after the second dose (4wp2). Four series of experiments were performed, each with its own naked control.

[3] = Polydispersity index (PDI) of the lipid nanoparticle (dynamic light scattering); type: physicochemical; conditions: Table 4, FVII siRNA LNP
Excerpt: The lipid nanoparticles (LNPs) were formed by mixing equal volumes of lipids dissolved in alcohol with siRNA dissolved in a citrate buffer by an impinging jet process. […] The siRNA to total lipid ratio is approximately 0.05 (wt/wt). Where a LNP formulation contains four lipid components, the molar ratios correspond to the type of lipid as it appears in the first four columns of the table, in the order that they appear. The ratio of the lipids ranges from 20 to 70 mole percent for the cationic lipid with a target of 40-60, the mole percent of helper lipid ranges from 20 to 70 with a target of 30 to 50, the mole percent of neutral lipid ranges from 0-30, the mole percent of PEG lipid has a range from 1 to 6 with a target of 2 to 5. The concentration of siRNA solution ranges from 0.7 to 1.0 mg/mL with a target of 0.8 to 0.9 mg/mL in a sodium citrate: sodium chloride buffer pH 4-6, with a target of 4.5-5.5. The LNPs are formed by mixing equal volumes of lipid solution in ethanol with siRNA dissolved in a citrate buffer by an impinging jet process through a mixing device with ID ranging from 0.25 to 2.0 mm at a flow rate from 10 to 640 mL/min. The mixed LNP solution is held at room temperature for 0-24 hrs prior to a dilution step. […] The final product is sterile filtered and stored at 4° C. Unless indicated otherwise, all PDIs referred to herein are the PDI of the fully formed nanoparticle, as measured by dynamic light scattering on a Malvern Zetasizer. The nanoparticle sample was diluted in phosphate buffered saline (PBS) so that the count rate was approximately 200-400 kcts. The data is presented in Tables 4 and 5 as a weighted average of the intensity measure.

[4] = Chol/DSPC/stealth lipid S010, 45/44/9/2

## CCCCCCCCC(CCCCCCCC)CC(=O)OCc1cc(COC(=O)CCCCCCCOC(=O)CCCCCCC)cc(CN(C)C)c1 [Example 101]
[1]; Table 4
  pKa: 6.32

## CCCCC/C=C\C/C=C\CCCCCCCCOc1cc(COC(=O)CCCN(C)C)cc(OCCCCCCCC/C=C\C/C=C\CCCCC)c1 [Example 13]
[2]; Course A = days 0 & 21
  anti-RSV-F titer 2wp1 pool 1: 495
  anti-RSV-F titer 2wp1 pool 2: 620
  anti-RSV-F titer 2wp2 pool 1: 7157
  anti-RSV-F titer 2wp2 pool 2: 12316

## CCCCC/C=C\C/C=C\CCCCCCCC(=O)OCCCCOc1cc(CN(C)C)cc(OCCCCOC(=O)CC(CCCCCCCC)CCCCCCCC)c1 [Example 109]
[1]; Table 4
  pKa: 5.98
[3]; [4]
  PDI: 0.09

## CCCCCCCC(=O)OCCCCCCCCCCOC(=O)CCC(=O)OCc1cc(COC(=O)CCC(=O)OCCCCCCCCCCOC(=O)CCCCCCC)cc(CN(C)C)c1 [Example 78]
[1]; Table 4
  pKa: 6.02
[3]; [4]
  PDI: 0.043

## CCCCC/C=C\C/C=C\CCCCCCCCOc1cc(CCCOC(=O)CCN(C)C)cc(OCCCCCCCC/C=C\C/C=C\CCCCC)c1 [Example 81]
[2]; Course A = days 0 & 21
  anti-RSV-F titer 2wp1 pool 1: 1779
  anti-RSV-F titer 2wp1 pool 2: 1553
  anti-RSV-F titer 2wp2 pool 1: 24648
  anti-RSV-F titer 2wp2 pool 2: 15304
  anti-RSV-F titer 4wp2 pool 1: 41921
  anti-RSV-F titer 4wp2 pool 2: 34684

## CCCCC/C=C\C/C=C\CCCCCCCCOc1cc(COC(=O)OCCCN(C)C)cc(OCCCCCCCC/C=C\C/C=C\CCCCC)c1 [Example 68]
[2]; Course A = days 0 & 21
  anti-RSV-F titer 2wp1 pool 1: 1031
  anti-RSV-F titer 2wp1 pool 2: 494
  anti-RSV-F titer 2wp2 pool 1: 11315
  anti-RSV-F titer 2wp2 pool 2: 7800
  anti-RSV-F titer 4wp2 pool 1: 12963
  anti-RSV-F titer 4wp2 pool 2: 17734

## CCCCCCCCCC(=O)OCCCCCCCC(=O)OCc1cc(COC(=O)CCCCCCCOC(=O)CCCCCCCCC)cc(CN(C)C)c1 [Example 83]
[1]; Table 4
  pKa: 6.15
[3]; [4]
  PDI: 0.005

## CCCCC/C=C\C/C=C\CCCCCCCCOc1cc(CN(C)C)cc(OCCCCOC(=O)CCC(COC(=O)CCCCC)COC(=O)CCCCC)c1C [Example 104]
[1]; Table 4
  pKa: 6.02

## CCCCCCCCCCCCOC(=O)CCCCCOc1cc(CN(C)C)cc(OCCCCCC(=O)OCCCCCCCCCCCC)c1 [Example 90]
[1]; Table 4
  pKa: 5.81

## CCCCC/C=C\C/C=C\CCCCCCCC(=O)OCCCCCCOc1cc(CN(C)C)cc(OCCCCCCOC(=O)CCCCCCC/C=C\C/C=C\CCCCC)c1 [Example 45]
[1]; Table 4
  pKa: 5.57

## CCCCCCCC(=O)OCCCCCC(=O)OCc1cc(COC(=O)CCCCCOC(=O)CCCCCCC)cc(CN(C)C)c1 [Example 85]
[1]; Table 4
  pKa: 5.72

## CCCCC/C=C\C/C=C\CCCCCCCCOC(=O)CCCCOc1cc(CN(C)C)cc(OCCCCC(=O)OCCCCCCCC/C=C\C/C=C\CCCCC)c1 [Example 89]
[1]; Table 4
  pKa: 6.02
[3]; [4]
  PDI: 0.076

## CCCCC/C=C\C/C=C\CCCCCCCCOC(=O)CCC(=O)OCc1cc(COC(=O)CCC(=O)OCCCCCCCC/C=C\C/C=C\CCCCC)cc(CN(C)C)c1 [Example 77]
[1]; Table 4
  pKa: 6.09
[3]; [4]
  PDI: 0.014

## CCCCC/C=C\C/C=C\CCCCCCCCOc1cc(C(=O)OCCCN(C)C)cc(OCCCCCCCC/C=C\C/C=C\CCCCC)n1 [Example 25]
[2]; Course A = days 0 & 21
  anti-RSV-F titer 2wp1 pool 1: 1217
  anti-RSV-F titer 2wp1 pool 2: 1883
  anti-RSV-F titer 2wp2 pool 1: 1611
  anti-RSV-F titer 2wp2 pool 2: 1156
  anti-RSV-F titer 4wp2 pool 1: 2850
  anti-RSV-F titer 4wp2 pool 2: 1767

## CCCCCCCCC(CCCCCCCC)CC(=O)OCCCOc1cc(CN(C)C)cc(OCCCOC(=O)CC(CCCCCCCC)CCCCCCCC)c1 [Example 56]
[1]; Table 4
  pKa: 5.93

## CCCCCCCC/C=C\CCCCCCCCOc1cc(OCCCCCCCC/C=C\CCCCCCCC)cc(C2OCC(CN3CCCC3)O2)c1 (centres unmarked) [Example 9]
[2]; Course A = days 0 & 21
  anti-RSV-F titer 2wp1 pool 1: 1832
  anti-RSV-F titer 2wp1 pool 2: 1352
  anti-RSV-F titer 2wp2 pool 1: 29707
  anti-RSV-F titer 2wp2 pool 2: 18788

## CCCCC/C=C\C/C=C\CCCCCCCC(=O)OCCOCCOc1cc(CN(CC)CC)cc(OCCOCCOC(=O)CCCCCCC/C=C\C/C=C\CCCCC)c1 [Example 58]
[1]; Table 4
  pKa: 5.9

## CCCCCCCCCOC(=O)CCCCCCC(=O)OCc1cc(COC(=O)CCCCCCC(=O)OCCCCCCCCC)cc(CN(C)C)c1 [Example 79]
[1]; Table 4
  pKa: 6.48

## CCCCC/C=C\C/C=C\CCCCCCCC(=O)OCc1cc(COC(=O)CCCCCCC/C=C\C/C=C\CCCCC)cc(COC(=O)CCN(C)C)c1 [Example 29]
[2]; Course A = days 0 & 21
  anti-RSV-F titer 2wp1 pool 1: 2101
  anti-RSV-F titer 2wp1 pool 2: 3584
  anti-RSV-F titer 2wp2 pool 1: 12529
  anti-RSV-F titer 2wp2 pool 2: 18669
  anti-RSV-F titer 4wp2 pool 1: 23930
  anti-RSV-F titer 4wp2 pool 2: 37278

## CCCCC/C=C\C/C=C\CCCCCCCC(=O)OCCCOc1cc(CN(C)C)cc(OCCCOC(=O)CC(CCCCCCCC)CCCCCCCC)c1 [Example 97]
[1]; Table 4
  pKa: 5.82

## CCCCCCCCCCCC(=O)OCCCCCCOc1cc(CN(C)C)cc(OCCCCCCOC(=O)CCCCCCCCCCC)c1 [Example 59]
[1]; Table 4
  pKa: 6.09

## CCCCCCCC/C=C\CCCCCCCCOc1cc(CN(C)C)cc(OCCCCCCCC/C=C\CCCCCCCC)c1 [Example 1]
[1]; Table 4
  pKa: 5.59
[1]; Table 5
  pKa: 5.59
[3]; Chol/DSPC/stealth lipid PEG-DMG, 45/44/9/2
  PDI: 0.05

## CCCCC/C=C\C/C=C\CCCCCCCCOCC(CN(C)C)OCCCCCCCC/C=C\C/C=C\CCCCC (centres unmarked) [DLinDMA, 1,2-dilinoleyloxy-N,N-dimethyl-3-aminopropane, reference compound]
[2]; Course A = days 0 & 21
  anti-RSV-F titer 4wp2 pool 1: 26504 and 50799
  anti-RSV-F titer 4wp2 pool 2: 28008 and 35992
[2]; Course B = days 0 & 42
  anti-RSV-F titer 2wp1 pool 1: 13
  anti-RSV-F titer 2wp1 pool 2: 4
  anti-RSV-F titer 2wp2 pool 1: 18290
  anti-RSV-F titer 2wp2 pool 2: 5538
  anti-RSV-F titer 4wp2 pool 1: 13936
  anti-RSV-F titer 4wp2 pool 2: 7020

## CCCCC/C=C\C/C=C\CCCCCCCC(=O)OCc1cc(COC(=O)CCCCCCC/C=C\C/C=C\CCCCC)cc(COC(=O)OCCN(C)C)c1 [Example 70]
[2]; Course A = days 0 & 21
  anti-RSV-F titer 2wp1 pool 1: 1416
  anti-RSV-F titer 2wp1 pool 2: 3110
  anti-RSV-F titer 2wp2 pool 1: 31550
  anti-RSV-F titer 2wp2 pool 2: 20124
  anti-RSV-F titer 4wp2 pool 1: 18779
  anti-RSV-F titer 4wp2 pool 2: 18358

## CCCCCCCC(=O)OCC(COC(=O)CCCCCCC)OC(=O)CCC(=O)OCc1cc(COC(=O)CCC(=O)OC(COC(=O)CCCCCCC)COC(=O)CCCCCCC)cc(CN(C)C)c1 [Example 107]
[1]; Table 4
  pKa: 6.11
[3]; [4]
  PDI: 0.071

## CCCCCCCC/C=C\CCCCCCCCOc1cc(OCCCCCCCC/C=C\CCCCCCCC)cc(C2OCC(COC(=O)CN(C)C)O2)c1 (centres unmarked) [Example 12]
[2]; Course B = days 0 & 42
  anti-RSV-F titer 2wp1 pool 1: 88
  anti-RSV-F titer 2wp1 pool 2: 128
  anti-RSV-F titer 2wp2 pool 1: 4550
  anti-RSV-F titer 2wp2 pool 2: 4828
  anti-RSV-F titer 4wp2 pool 1: 4787
  anti-RSV-F titer 4wp2 pool 2: 3972

## CCCCC/C=C\C/C=C\CCCCCCCCNC(=O)c1cc(COC(=O)CCCN(C)C)cc(C(=O)NCCCCCCCC/C=C\C/C=C\CCCCC)c1 [Example 66]
[2]; Course A = days 0 & 21
  anti-RSV-F titer 2wp1 pool 1: 75
  anti-RSV-F titer 2wp1 pool 2: 75
  anti-RSV-F titer 2wp2 pool 1: 75
  anti-RSV-F titer 2wp2 pool 2: 75
  anti-RSV-F titer 4wp2 pool 1: 75
  anti-RSV-F titer 4wp2 pool 2: 75
